Key:
[1] = Particle size distribution by laser light diffraction (Malvern Mastersizer 2000, Fraunhofer); format: physicochemical; settings: cumulative volume
Description: In some embodiments, the particle size distribution and the PSD90 of a compound of the invention is determined by the laser light diffraction particle size distribution analysis. The particle size distribution is determined in accordance with the Fraunhofer light diffraction method. In this method, a coherent laser beam passes through the sample and the resulting diffraction pattern is focused on a multi-element detector. Since the diffraction pattern depends, among other parameters, on particle size, the particle size distribution can be calculated based on the measured diffraction pattern of the sample. The method is described in more detail in USP38-NF33, <429> Light Diffraction Measurement of Particle Size.
The particle size distribution was determined in accordance with the Fraunhofer light diffraction method. A coherent laser beam was passed through the sample and the resulting diffraction pattern was focused on a multi-element detector. Because the diffraction pattern depends, among other parameters, on particle size, the particle size distribution (PSD) was calculated based on the measured diffraction patter of the sample.
Stock dispersion solution was prepared by adding a few drops of the dispersing aid (e.g., 1% w/w solution of a detergent in white spirit such as Span 80, Fluka (85548-250 ml)) to an appropriate amount of substance and mixed carefully. The dispersion was then slowly diluted to a final volume of about 10 ml while vortexing. The suspension cell of the instrument (Malvern Mastersizer 2000 equipped with Hydro 2000S sample dispersion unit) was filled with dispersion medium and a background measurement was taken. […] The cumulative volume distribution was determined in accordance with the instrument's instruction manual.
The PSD10, PSD50, and PSD90 values were determined from the cumulative volume distribution of each measurement. Values smaller than 10 μm were reported to one decimal place. Results larger than 10 μm were reported as single digit values. Sample parameters used in analysis are shown below: […]

[2] = Effect of steady-state gemcabene 600 mg on single-dose pharmacokinetics of ON 1/35 (ethinyl estradiol/norethindrone) in healthy female subjects; format: in vivo, human; settings: for exposure in presence of gemcabene calcium salt hydrate Crystal Form 1 (geometric LS mean ratio): single dose ON 1/35 with gemcabene 600 mg daily at steady state, mild drug-drug interaction
Description: An open-label, two-sequence, cross-over study to assess the steady-state effects of gemcabene on the single-dose pharmacokinetics (PK) of oral contraceptive tablets in healthy female subjects was conducted with 300 mg tablets containing gemcabene calcium salt hydrate Crystal Form 1 having PSD90 of 52 μm (Tablet F).
The population for this study was generally healthy, adult female subjects of childbearing potential (≥18 to ≤35 years of age). This population supports the overall objective of the study to evaluate the effect of 600 mg of gemcabene calcium salt hydrate Crystal Form 1 having PSD90 of 52 μm at steady-state on the PK of a single dose of ON 1/35 (Ortho Novum 1/35; combined ethinyl estradiol/norethindrone oral contraceptive). The primary objective of this study was to assess the effect of daily 600 mg of gemcabene calcium salt hydrate Crystal Form 1 having PSD90 of 52 μm at steady-state on the pharmacokinetics (PK) of ON 1/35. The secondary objectives of this study were to assess the safety and tolerability of daily gemcabene 600 mg in combination with a single-dose ON 1/35 and to assess the steady-state PK of 600 mg of gemcabene calcium salt hydrate Crystal Form 1 having PSD90 of 52 μm (Tablet F×2).
Gemcabene calcium salt hydrate Crystal Form 1 having PSD90 of 52 μm was administered orally as a single dose of 600 mg, given as two 300 mg tablets (300-mg Tablet F×2) (with 240 mL of water). Gemcabene calcium salt hydrate Crystal Form 1 having PSD90 of 52 μm (600 mg) was administered at the same time each day.
Non-compartmental PK single-dose parameters were obtained, including Cmax, time to the maximum observed plasma concentration (Tmax), AUC from time 0 to time of last detectable concentration (AUClast) and when possible, AUC extrapolated to infinite time (AUC∞), percent of AUC∞ obtained from forward extrapolation (AUCextrap %), apparent terminal rate constant (λz), apparent terminal half-life ([…]), apparent total body clearance (CL/F), and apparent volume of distribution of the terminal phase (Vz/F) for ethinyl estradiol and norethindrone.

[3] = system: hepatic mRNA expression in STAM™ mice; assay: Murine STAM model of NASH-HCC: hepatic gene expression by quantitative RT-PCR; format: in vivo, mouse
Description: A study was performed to evaluate the efficacy of gemcabene calcium salt hydrate Crystal Form 1 having a PSD90 of 52 μm as measured by laser light diffraction, in treating non-alcoholic steatosis hepatitis (NASH) in the murine STAM™ model of NASH-HCC.
Briefly, two-day old neonatal C57BL/6 male mice were administered low-dose streptozotocin (STZ), and were subsequently fed a HFC diet from 4 weeks of age. In this model, the mice typically develop liver steatosis and diabetes, reaching steatohepatitis within 3 weeks, followed by cirrhosis within 8 weeks, and carcinoma within 16 weeks. In the current study, mice were administered daily oral gemcabene calcium salt hydrate Crystal Form 1 starting at week 6 of age and were sacrificed at week 9. Telmisartan (with antisteatotic, anti-inflammatory and antifibrotic effects in STAM™ mice) was used as a positive comparator. A baseline reference group was administered vehicle at day 2 of age, and from week 6 of age was vehicle-treated and chow-fed. Five STAM™ groups were streptozocin-treated at day 2 of age and fed a HFC-diet beginning with week 4 of age. These STAM™ groups were orally administered from week 6 one of the following: water-vehicle, gemcabene calcium salt hydrate Crystal Form 1 at 30, 100 and 300 mg/kg daily, or telmisartan ([…]®) 10 mg/kg daily. Telmisartan ([…]®) was purchased from Boehringer Ingelheim GmbH (Germany) and dissolved in pure water. All groups were sacrificed at week 9. Vehicle, gemcabene calcium salt hydrate Crystal Form 1, or telmisartan were administered by oral gavage once daily.
Various gene expression markers of liver metabolism were evaluated by Real-Time PCR (RT-PCR) in all mouse groups. Total RNA was extracted from liver samples using RNAiso (Takara Bio, Japan) according to the manufacturer's instructions. One μg of RNA was reverse-transcribed using a reaction mixture containing 4.4 mM MgCl2 (F. Hoffmann-La Roche, Switzerland), 40 U RNase inhibitor (Toyobo, Japan), 0.5 mM dNTP (Promega, USA), 6.28 μM random hexamer (Promega), 5× first strand buffer (Promega), 10 mM dithiothreitol (Invitrogen, USA) and 200 U MMLV-RT (Invitrogen) in a final volume of 20 μL. The reaction was carried out for 1 hour at 37° C., followed by 5 minutes at 99° C. Real-time PCR was performed using real-time PCR DICE and SYBR premix Taq (Takara Bio). To calculate the relative mRNA expression level, the expression of each gene was normalized to that of reference gene 36B4 (gene symbol: Rplp0). Information of PCR-primer sets is described in Tables 20A-20C. Statistical analyses were performed using the Bonferroni Multiple Comparison Test on GraphPad Prism 6 (GraphPad Software Inc., USA). P values <0.05 were considered statistically significant. Results are expressed as mean±SD.
In order to calculate the relative mRNA expression level, the expression of each gene was normalized to that of the reference gene 36B4 (gene symbol: Rplp0). The gene expression levels were measured by quantitative RT-PCR. Results were normalized with values for the vehicle-treated normal group. […] Gemcabene calcium salt hydrate Crystal Form 1 (PSD90=52 μm) modulated the mRNA expression of many hepatic genes that play a significant role in the liver homeostasis and injury.

[4] = Treatment B = single dose ON 1/35 and daily gemcabene 600 mg, Treatment A = single dose ON 1/35 alone, healthy female subjects
[5] = 10 mg/kg, normalized to Vehicle in Normal, mean ± SD, n = 7

Structure (SMILES) | D10 (PSD10) [1] | D50 (PSD50) [1] | D90 (PSD90) [1] | further results
CC(C)(CCCCOCCCCC(C)(C)C(=O)[O-])C(=O)[O-].[Ca+2] [Sample 9] | 17 μm | 386 μm | 996 μm | 
CC(C)(CCCCOCCCCC(C)(C)C(=O)[O-])C(=O)[O-].[Ca+2] [Sample 7] | 5.4 μm | 20 μm | 62 μm | 
CC(C)(CCCCOCCCCC(C)(C)C(=O)[O-])C(=O)[O-].[Ca+2] [Sample 5] | 7.8 μm | 101 μm | 431 μm | 
CC(C)(CCCCOCCCCC(C)(C)C(=O)[O-])C(=O)[O-].[Ca+2] [Sample 3] | 5.3 μm | 32.2 μm |  | 
CC(C)(CCCCOCCCCC(C)(C)C(=O)[O-])C(=O)[O-].[Ca+2] [Sample 4] | 5.8 μm | 22 μm | 52 μm | 
CC(C)(CCCCOCCCCC(C)(C)C(=O)[O-])C(=O)[O-].[Ca+2] [Sample 1] | 6.3 μm | 50.4 μm |  | 
CC(C)(CCCCOCCCCC(C)(C)C(=O)[O-])C(=O)[O-].[Ca+2] [Sample 2] | 4.8 μm | 22.9 μm |  | 
CC(C)(CCCCOCCCCC(C)(C)C(=O)[O-])C(=O)[O-].[Ca+2] [Sample 8] | 8.2 μm | 24 μm | 48 μm | 
C#C[C@]1(O)CC[C@H]2[C@@H]3CCC4=CC(=O)CC[C@@H]4[C@H]3CC[C@@]21C [norethindrone] |  |  |  | AUCinf (h*pg/mL): Ratio Geom. LS Mean (Treatment B/Treatment A) [2, 4]: 86.33%; AUClast (h*pg/mL): Ratio Geom. LS Mean (Treatment B/Treatment A) [2, 4]: 85.94%; Cmax (pg/mL): Ratio Geom. LS Mean (Treatment B/Treatment A) [2, 4]: 90.56%; exposure in presence of gemcabene calcium salt hydrate Crystal Form 1 (geometric LS mean ratio) [2]: slightly decreased
CC(C)(CCCCOCCCCC(C)(C)C(=O)[O-])C(=O)[O-].[Ca+2] [Sample 6] | 7.8 μm | 25 μm | 52 μm | 
C#C[C@]1(O)CC[C@H]2[C@@H]3CCc4cc(O)ccc4[C@H]3CC[C@@]21C [ethinyl estradiol] |  |  |  | AUC0-12 (h*pg/mL): Ratio Geom. LS Mean (Treatment B/Treatment A) [2, 4]: 78.54%; AUClast (h*pg/mL): Ratio Geom. LS Mean (Treatment B/Treatment A) [2, 4]: 86.70%; Cmax (pg/mL): Ratio Geom. LS Mean (Treatment B/Treatment A) [2, 4]: 70.50%; exposure in presence of gemcabene calcium salt hydrate Crystal Form 1 (geometric LS mean ratio) [2]: slightly decreased
CC(C)(CCCCOCCCCC(C)(C)C(=O)[O-])C(=O)[O-].[Ca+2] [Sample 10] |  |  | 55 μm | 
CC(C)(CCCCOCCCCC(C)(C)C(=O)[O-])C(=O)[O-].[Ca+2] [Sample 11] |  |  | 47 μm | 
CCCc1nc2c(C)cc(-c3nc4ccccc4n3C)cc2n1Cc1ccc(-c2ccccc2C(=O)O)cc1 [telmisartan, reference compound] |  |  |  | ANGPTL3 gene expression (hepatic mRNA, RT-PCR) [3, 5]: 0.7 ± 0.2; ANGPTL4 gene expression (hepatic mRNA, RT-PCR) [3, 5]: 2.1 ± 0.3; CCR5 gene expression (hepatic mRNA, RT-PCR) [3, 5]: 1.5 ± 0.3; CXCL1/KC gene expression (hepatic mRNA, RT-PCR) [3, 5]: 0.6 ± 0.3; LPL gene expression (hepatic mRNA, RT-PCR) [3, 5]: 2.4 ± 0.5; Sulf-2 gene expression (hepatic mRNA, RT-PCR) [3, 5]: 3.9 ± 0.9; CRP mRNA levels ([3]; telmisartan 10 mg/kg, vs vehicle-treated STAM group): No significant differences
